Data: US20020151734A1, “12-HETrE analogs and methods of use thereof” (priority 2001, published 2002)
*1 amine or outer side, *2 acyl side, *3 side chain or, on linkers, in order; H or OH if unused. Where a SMILES comes first, the peptide text is derived from it. Bridges are numbered along the chain shown (N, C = ends). Roman numbers before positions name the chains, in order. [ ]: non-standard residue; d: D form. Actinocin(9to1) = Cc1c2oc3c(C)ccc(C(=O)[*:1])c3nc-2c(C(=O)[*:2])c(N)c1=O; NMeV = CN[C@H](C(=O)O)C(C)C; Sar = CNCC(=O)O

How the values were obtained:
[1] = test system: RLME cells; test: Inhibition of [^3H]12(R)-HETrE binding to RLME cells; settings: analog 1 μM; for % Inhibition of [^3H]12(R)-HETrE binding: [^3H]12(R)-HETrE at 10 nM, RLME cells; for Result (agonist or antagonist): classed from % inhibition of [^3H]12(R)-HETrE binding
Description: Alternatively, the antagonistic or agonistic activity of 12-HETrE analogs may be measured by determining the percentage of inhibition of [^3H]12(R)-HETrE binding at 10 nM to RLME cells. Generally, inhibition of [^3H]12(R)-HETrE binding greater than 50% is indicative of agonists and inhibition lower than 50% is indicative of antagonists.

[2] = test system: VEGF mRNA; test: VEGF mRNA levels in microvessel endothelial (RLMVE) cells by slot blot analysis; type: cell-based; settings: for effect on 12(R)-HETrE-induced VEGF mRNA/expression: co-incubation with 12(R)-HETrE
Description: The antagonistic or agonistic activity of 12-HETrE analogs may be measured by measuring increases in vascular cadothelial growth factor (VEGF) mRNA following incubation of microvessel endothelial cells (RLMVE cells) with 12(R)-HETrE and other compounds followed by slot blot analysis, as described in the Examples. […] In this way the 12-HETrE analogs 8-(R) and 8-(S) were determined to be 12(R)-HETrE agonists.
12(R)-HETrE increased VEGF mRNA levels in a time-dependent manner. A 5-fold increase over the control levels was observed 45 min after addition of 12(R)-HETrE. These levels gradually declined to the control levels by 48 h. […] 12(R)-HETrE increased VEGF mRNA in a concentration-dependent manner with 0.1 nM having the maximal effect.
Human VEGF cDNA was used as a probe for slot blot analysis to measure increases in VEGF mRNA following incubation of RLMVE cells with 12(R)-HETrE and 12-HETrE analogs. To measure agonistic activity compounds were added to the incubation medium at concentration of 0.1, 1, and 10 nM and their effect on VEGF mRNA levels after 45 min incubation was measured in comparison to that of 12(R)-HETrE at the same concentration. To measure antagonistic activity, compounds at the above concentrations were added with 0.1 nM 12(R)-HETrE and 45 min later RNA extracted samples were processed for slot blot analysis.

| Compound | % Inhibition of [^3H]12(R)-HETrE binding [1] [%] | Result (agonist or antagonist) [1] | also measured |
| --- | --- | --- | --- |
| CCCCC/C=C\C[C@H](O)CC/C=C\C/C=C\CCCC(=O)NS(C)(=O)=O [1-a-(R), N-(Methylsulfonyl)-12(R)-hydroxyeicosa-5(Z),8(Z),14(Z)-trienamide] | 62.6 | Agonist (inhibition of [^3H]12(R)-HETrE binding greater than 50% is indicative of agonists) |  |
| CCCCC/C=C\C[C@@H](O)CC/C=C\C/C=C\CCCC(=O)NS(C)(=O)=O [1-a-(S), N-(Methylsulfonyl)-12(S)-hydroxyeicosa-5(Z),8(Z),14(Z)-trienamide] | 33.3 | Antagonist (inhibition lower than 50% is indicative of antagonists) | increase in VEGF mRNA (densitometry) ([2]; 1 nM, 45 min incubation): 5 fold; agonistic activity by VEGF mRNA increase ([2]; slot blot analysis): significant agonistic activity |
| CCCCC/C=C\C[C@@H](CC/C=C\C/C=C\CCCC(=O)O)OC [2-(R), 12(R)-Methoxyeicosa-5(Z),8(Z),14(Z)-trienoic acid] | 38.6 | Antagonist (inhibition lower than 50% is indicative of antagonists) |  |
| CCCCC/C=C\C[C@H](CC/C=C\C/C=C\CCCC(=O)O)OC [2-(S), 12(S)-Methoxyeicosa-5(Z),8(Z),14(Z)-trienoic acid] | 34.2 | Antagonist (inhibition lower than 50% is indicative of antagonists) |  |
| CCCCC/C=C\C[C@H](O)CC/C=C\CC#CCCCC(=O)O [3-(R), 12(R)-hydroxyeicosa-8(Z),14(Z)-dien-5-ynoic acid] | 58.1 | Agonist (inhibition of [^3H]12(R)-HETrE binding greater than 50% is indicative of agonists) |  |
| CCCCC/C=C\C[C@@H](O)CC/C=C\CC#CCCCC(=O)O [3-(S), 12(S)-Hydroxyeicosa-8(Z),14(Z)-dien-5-ynoic acid] | 23.6 | Antagonist (inhibition lower than 50% is indicative of antagonists) |  |
| CCCCC/C=C\C[C@H](O)CC/C=C\C/C=C\COCC(=O)O [4-a-(R), (9(R)-Hydroxyheptadeca-2(Z),5(Z),11(Z)-trienyloxy)acetic acid] | 48.0 | Antagonist (inhibition lower than 50% is indicative of antagonists) |  |
| CCCCC/C=C\C[C@@H](O)CC/C=C\C/C=C\COCC(=O)O [4-a-(S)] | 24.3 | Antagonist (inhibition lower than 50% is indicative of antagonists) |  |
| CCCCC/C=C\C[C@H](O)CC/C=C\CCCCCCC(=O)O [5-(R), 12(R)-Hydroxyeicosa-8(Z),14(Z)-dienoic acid] | 92.4 | Agonist (inhibition of [^3H]12(R)-HETrE binding greater than 50% is indicative of agonists) |  |
| CCCCC/C=C\C[C@@H](O)CC/C=C\CCCCCCC(=O)O [5-(S), 12(S)-Hydroxyeicosa-8(Z),14(Z)-dienoic acid] | 54.5 | Agonist (inhibition of [^3H]12(R)-HETrE binding greater than 50% is indicative of agonists) |  |
| CCCCCCCC[C@@H](O)CC/C=C\C/C=C\CCCC(=O)O [6-(R), 12(R)-Hydroxyeicosa-5(Z),8(Z)-dienoic acid] | 87.2 | Agonist (inhibition of [^3H]12(R)-HETrE binding greater than 50% is indicative of agonists) |  |
| CCCCCCCC[C@H](O)CC/C=C\C/C=C\CCCC(=O)O [6-(S), 12(S)-Hydroxyeicosa-5(Z),8(Z)-dienoic acid] | 73.0 | Agonist (inhibition of [^3H]12(R)-HETrE binding greater than 50% is indicative of agonists) |  |
| CCCCC/C=C\C[C@H](O)CCCCC/C=C\CCCC(=O)O [7-(R), 12(R)-Hydroxy-eicosa-5(Z),14(Z)-dienoic acid] | 88.7 | Agonist (inhibition of [^3H]12(R)-HETrE binding greater than 50% is indicative of agonists) |  |
| CCCCC/C=C\C[C@@H](O)CCCCC/C=C\CCCC(=O)O [7-(S), 12(S)-Hydroxyeicosa-5,(Z)14(Z)-dienoic acid] | 69.5 | Agonist (inhibition of [^3H]12(R)-HETrE binding greater than 50% is indicative of agonists) |  |
| CCCCCC=CC[C@H](O)CCC=CCC=CCCCC(=O)O [12(R)-HETrE, 12(R)-hydroxy-5,8,14-eicosatrienoic acid] | 69.8 |  | time by which VEGF mRNA levels declined to the control levels ([2]; 0.1 nM): ≤ 48 h; increase in VEGF mRNA over the control levels ([2]; 0.1 nM, 45 min after addition): 5 fold; concentration having the maximal effect on VEGF mRNA ([2]; concentration-dependent increase): 0.1 nM |
| CCCCC/C=C\C[C@@H](O)CC/C=C\C/C=C\CCCC(=O)O [12(S)-HETrE, 12(S)-(5Z,8Z,14Z)-12-hydroxyeicosa-5,8,14-trienoic acid, reference compound] | 62.4 | Agonist (inhibition of [^3H]12(R)-HETrE binding greater than 50% is indicative of agonists) |  |
| Cc1c2oc3c(C)ccc(C(=O)N[C@@H]4C(=O)N[C@H](C(C)C)C(=O)N5CCC[C@H]5C(=O)N(C)CC(=O)N(C)[C@@H](C(C)C)C(=O)O[C@@H]4C)c3nc-2c(C(=O)N[C@@H]2C(=O)N[C@H](C(C)C)C(=O)N3CCC[C@H]3C(=O)N(C)CC(=O)N(C)[C@@H](C(C)C)C(=O)O[C@@H]2C)c(N)c1=O [actinomycin D] (I: T[dV]P[Sar][NMeV] / II: T[dV]P[Sar][NMeV]; ester I:1-I:C, II:1-II:C; linker I:N-II:N via Actinocin(9to1)) |  |  | effect on 12(R)-HETrE-induced VEGF mRNA/expression [2]: abolished |
| C[C@@H]1C[C@@H]([C@H](O)CC2CC(=O)NC(=O)C2)C(=O)[C@@H](C)C1 [cycloheximide] |  |  | effect on 12(R)-HETrE-induced VEGF mRNA/expression [2]: did not affect |
